Reference: patent publication US6686382B2, “Sulfonamides and derivatives thereof that modulate the activity of endothelin” (Encysive Pharmaceuticals Inc., priority 1999, dated 2004)

What was measured:
[1] = test system: DOCA-salt hypertensive rat; experiment: Deoxycorticosterone acetate (DOCA)-salt hypertensive rat model; details: in vivo
Protocol: Selected compounds disclosed herein have been tested for activity in the deoxycorticosterone acetate (DOCA)-salt hypertensive rat model. To perform these tests, silastic MDX4-4210 elastomer implants containing 47 mg (DOCA) were prepared according to the method of Ornmsbee et al. ((1973) the J. Pharm. Sci. 62:255-257). Briefly, DOCA is incorporated into silicon rubber implants for sustained release. To prepare the implants the DOCA is incorporated into unpolymerized silicone rubber, catalyst is added and the mixture is cast in a hemicylindrical shape.
Sprague Dawley rats (7-8 weeks old) were unilaterally nephrectomized under ketamine anesthesia and a DOCA-implant was placed on the left lateral dorsal abdomen of the animal. The rats were allowed to recover for three weeks. During recovery they were permitted free access to normal rat chow and 0.9% NaCl drinking solution in place of drinking water. The rats develop hypertension within 3 weeks. […]
On the day of experimentation, catheters were inserted under brevital anesthesia into the right femoral artery for measurement of blood pressure, and into the right femoral vein for administration of a selected compound. The animals were placed in a restrainer and allowed to recover for a minimum of 60 min or until a steady mean arterial blood pressure was recorded. […] Blood pressure was recorded continuously for a further 10 hrs.

[2] = molecular target: T1, CYP2C9 (Homo sapiens, UniProt P11712); experiment: Cytochrome P450 enzyme assay, CYP2C9 (Gentest Supersomes, fluorometric); assay type: in vitro ADME; details: human recombinant enzyme, mean IC50; read-out: CP450 2C9 IC50
T1 construct: purchased Gentest Corporation P258
T1 sequence (P11712 whole entry): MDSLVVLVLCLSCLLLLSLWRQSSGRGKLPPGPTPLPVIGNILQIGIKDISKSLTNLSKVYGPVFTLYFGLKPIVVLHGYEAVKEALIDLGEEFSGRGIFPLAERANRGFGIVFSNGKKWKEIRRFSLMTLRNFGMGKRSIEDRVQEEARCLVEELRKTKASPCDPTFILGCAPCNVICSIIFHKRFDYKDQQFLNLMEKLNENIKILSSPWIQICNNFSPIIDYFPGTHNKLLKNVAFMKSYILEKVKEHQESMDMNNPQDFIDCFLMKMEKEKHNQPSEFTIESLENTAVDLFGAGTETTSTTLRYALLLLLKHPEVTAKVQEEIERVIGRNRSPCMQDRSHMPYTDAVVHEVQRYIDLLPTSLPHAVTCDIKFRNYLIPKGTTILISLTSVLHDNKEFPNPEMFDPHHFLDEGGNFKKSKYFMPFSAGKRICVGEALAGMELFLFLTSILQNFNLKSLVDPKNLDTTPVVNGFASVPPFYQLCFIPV
Protocol: In vitro assays to determine the concentration of the compounds provided herein required for 50% inhibition of substrate metabolism (IC50) by different human cytochrome P450 enzymes (2C9, 2C19, 3A4) were conducted using human recombinant cytochrome P450 enzyme assays, developed by Gentest Corporation. These assays contain Gentest Supersomes™ (specific human cytochrome P450 enzyme, co-expressed with P450 reductase and cytochrome b5), a NADPH regenerating system, substrate and a concentration range of the compounds provided herein. The fluorescent product was the measured end point for these assays. IC50s were calculated using a four-parameter logistic equation with the bottom fixed at 0% inhibition and the top fixed at 100% inhibition. (Values are the mean IC50±SD when n is greater than 1.)
Assays were conducted in 96-well microtiter plates using fluorometric assays developed by Gentest Corporation. The 12 wells in each row were used for one inhibition curve. Wells 1 to 8 contained serial 1:3 dilutions of the test compound. Wells 9 to 12 contained no inhibitor and wells 11 and 12 were blanks for background fluorescence (stop solution was added before the enzyme). All concentration curves were performed in duplicate. Incubations were initiated by the addition of enzyme and substrate to the pre-warmed reaction mixture. After a specific incubation period, the reaction was stopped by the addition of stop solution. Metabolite production per well was determined by measuring fluorescence using a fluorescent plate reader. Detailed experimental procedures for each enzyme are listed below. See, generally, Methodology of a high throughput method for measuring cytochrome P450 inhibition (Gentest Corporation, Technical Bulletin); Crespi, C. L.; Miller, V. P.; and Penman, B. W. (1997) Anal. Biochem. 248:188-190; and Geungerich, F. P. (1997) Adv. Pharm. 43:7-35.
A 0.2 ml/well reaction mixture containing 2 pmol CYP2C9 (P258), 1.3 mM NADP^+, 3.3 mM glucose-6-phosphate, 3.3 mM magnesium chloride, 0.4 U/ml glucose-6-phosphate dehydrogenase and 75 μM 7-methoxy-4-trifluoromethylcoumarin in […] (pH 7.4), was incubated at 37° C. for 45 minutes. Sulfaphenazole, a standard inhibitor of CYP2C9, was serially diluted from the highest concentration of 10 μM and acted as a positive control. […] After incubation, the reaction was stopped by the addition of 75 μl stop solution (80% acetonitrile/20% 0.5 M Tris base) and fluorescence/well was measured using a Spectra Fluor (Tecan) or Cytoflour 2350 (Millipore) fluorescent plate reader. […]
The “% inhibition” was calculated as follows: [formula]
Concentration versus % inhibition curves were constructed in Prism (GraphPad, Inc.). The data was analyzed using “Top & Bottom Fixed” routine. […]

[3] = test system: rats exposed to acute hypoxia; experiment: Acute hypoxia model, mean pulmonary arterial pressure (MPAP) increase; details: in vivo model, rat
Protocol: The chamber was gassed by adding N2 to the chamber intermittently from a liquid N2 reservoir. A baralyme (Allied Health Care Products, St. Louis, Mo., USA) CO2 scrubber kept the CO2 concentration <0.2%. Relative humidity within the chamber was kept <70% with anhydrous CaSO4. Boric acid was used to keep NH3 levels within the chamber at a minimum. See, Tilton et al. (2000) Pulm. Pharm. Ther. 13:87-97. In the initial experiment, effects of a test compound were assessed on mean pulmonary arterial pressure (MPAP) of rats subsequently exposed to acute hypoxia 90 min in duration. […] All catheters were connected to polyethylene (PE 20) tubing, and were exteriorized at the back of the neck by a stainless steel wire (0.018 in. diam) tunneled subcutaneously. Two days later, MPAP was recorded through the femoral and pulmonary arterial cannulas via transducers coupled to a polygraph recorder. […] Pulmonary pressure rapidly returned toward baseline values when this group was returned to room air at the end of the experiment.

SMILES | effect on blood pressure in the hypertensive rat model [1] | IC50 [2] [µM] | Acute Hypoxia: dose to achieve 50% inhibition of mean pulmonary artery pressure increase ([3]; listed as N-(2-acetyl-4,6-dimethylphenyl)-3-{[(3,4 dimethyl-5-isoxazolyl)amino]-sulfonyl}-) [mg/kg] | Acute Hypoxia: dose to achieve 50% inhibition of mean pulmonary artery pressure increase ([3]; listed as N-(2-acetyl-4,6-dimethylphenyl)-3-{[(3,4 dimethyl-5-isoxazolyl)amino]sulfonyl}-2) | melting point [°C] | Acute Hypoxia: dose to achieve 50% inhibition of mean pulmonary artery pressure increase [3] [mg/kg]
CC(=O)c1cc(C)cc(C)c1NC(=O)c1sccc1S(=O)(=O)Nc1onc(C)c1C [Compound 7, N-(2-acetyl-4,6-dimethylphenyl)-3-{[(3,4 dimethyl-5-isoxazolyl)amino]sulfonyl}-2-thiophenecarboxamide] | effective in decreasing blood pressure | 7.6 | 1 | approximately 1 mg/kg | – | –
Cc1cc(C)c(NC(=O)c2sccc2S(=O)(=O)Nc2onc(C)c2Cl)c(Cl)c1 [Compound 34, N-(2-chloro-4,6-dimethylphenyl)-3-{[(4-chloro-3-methyl-5-isoxazolyl)amino]sulfonyl}2-thiophenecarboxamide] | – | 0.56 | – | – | 174 to 176 | –
Cc1cc(C)c(NC(=O)c2sccc2S(=O)(=O)Nc2onc(C)c2Cl)c(S(C)(=O)=O)c1 [Compound 42, 3-{[(4-chloro-3-methyl-5-isoxazolyl)amino]sulfonyl)-N-[2,4-dimethyl-6-(methylsulfonyl)phenyl]-2-thiophenecarboxamide] | – | 5.3 | – | – | 208 to 210 | –
Cc1cc2c(cc1CC(=O)c1sccc1S(=O)(=O)Nc1onc(C)c1Cl)OCO2 [N-(4-chloro-3-methyl-5-isoxazolyl)-2-{[3,4-(methylenedioxy)-6-methylphenyl)acetyl]-thiophene-3-sulfonamide, reference compound] | – | 0.03 | – | – | – | 2.5
